Source: patent US20170232083A1, “METHODS OF DIAGNOSIS AND TREATMENT OF CELIAC DISEASE IN CHILDREN” (priority 2014, published 2017)

Test system: PBMC (polyclonal gluten-specific T cells) of paediatric and adult CD patients
Assay: IFN-γ ELISpot of PBMC after 3 day oral wheat challenge (SFU, % of maximal peptide response, dominance scores, EC50; Examples 5-6)
Type: cell-based, human
Settings: for IFN-γ ELISpot response: after oral wheat challenge
[1] = patient G, 11-17 yrs, cut-off 10 SFU
[2] = patient H, 11-17 yrs, cut-off 10 SFU
[3] = patient ID not given, 11-17 yrs, cut-off 10 SFU
[4] = patient ID not given, max peptide 95 SFU
[5] = patient P, 11-17 yrs, cut-off 21.6 SFU
[6] = patient Q, 11-17 yrs, cut-off 10 SFU
[7] = patient U, H, 11-17 yrs, cut-off 10 SFU
[8] = patient V, 6-10 yrs, cut-off 10 SFU
[9] = patient Y, 6-10 yrs, cut-off 10 SFU
[10] = patient eleven, 6-10 yrs, cut-off 10 SFU
[11] = patient four, 3-5yrs, cut-off 10 SFU
[12] = patient four, max peptide 44 SFU
[13] = patient seven, 6-10 yrs, cut-off 10.5 SFU
[14] = patient seven, max peptide 27 SFU
[15] = patient ten, 3-5yrs, cut-off 10 SFU
[16] = patient three, 6-10 yrs, cut-off 10.5 SFU
[17] = patient two, 3-5yrs, cut-off 10 SFU
[18] = patient two, max peptide 60 SFU
[19] = patient A, 11-17 yrs, cut-off 10 SFU
[20] = patient E, H, 11-17 yrs, cut-off 10 SFU
[21] = patient F, 11-17 yrs, cut-off 10 SFU
[22] = patient H (HLA-DQ2.5 homozygote), 3-5yrs, cut-off 10 SFU
[23] = patient N, 3-5yrs, cut-off 10 SFU
[24] = patient twelve, 11-17 yrs, cut-off 10 SFU

Sequence | IFN-γ ELISpot response [1] | IFN-γ ELISpot response [2] | IFN-γ ELISpot response [3] | Significant response as percentage of maximal peptide SFU [4] | Significant response as percentage of maximal peptide SFU (patient J, max peptide 196 SFU) | Significant response as percentage of maximal peptide SFU (patient K, max peptide 53 SFU) | IFN-γ ELISpot response [5] | IFN-γ ELISpot response [6] | Significant response as percentage of maximal peptide SFU (patient Q, max peptide 97 SFU) | IFN-γ ELISpot response [7] | Significant response as percentage of maximal peptide SFU (patient U, max peptide 81 SFU) | IFN-γ ELISpot response [8] | IFN-γ ELISpot response [9] | IFN-γ ELISpot response [10] | IFN-γ ELISpot response [11] | Significant response as percentage of maximal peptide SFU [12] | IFN-γ ELISpot response [13] | IFN-γ ELISpot response [15] | IFN-γ ELISpot response [16] | IFN-γ ELISpot response [17] | also measured
FLQPEQPFPEQPEQPYPEQPEQPFPQ | 1 SFU | 6 SFU | 23 SFU | ′′ (21-40% = ′′) | ′ (11-20% = ′) | ′′ (21-40% = ′′) | 11 SFU | 18 SFU | ′ (11-20% = ′) | 26 SFU | ′′ (21-40% = ′′) | 12 SFU | 6 SFU | 15 SFU | 10 SFU | ′′ (21-40% = ′′) | 20 SFU | 3 SFU | 22 SFU | 12 SFU | Significant response as percentage of maximal peptide SFU (patient V, max peptide 35 SFU): ′′ (21-40% = ′′); Significant response as percentage of maximal peptide SFU (patient eleven, max peptide 57 SFU): ′′ (21-40% = ′′); Significant response as percentage of maximal peptide SFU [14]: + (>70% = +); Significant response as percentage of maximal peptide SFU [18]: ′ (11-20% = ′)
FPQPEQEFPQPQQ | 4 SFU | 9 SFU | 26 SFU | ′′ (21-40% = ′′) | + (>70% = +) | ′′′ (41-70% = ′′′) | 11 SFU | 27 SFU | ′′ (21-40% = ′′) | 15 SFU | ′ (11-20% = ′) | 9 SFU | 3 SFU | 1 SFU | 10 SFU | ′′ (21-40% = ′′) | 11 SFU | 5 SFU | 158 SFU | 13 SFU | IFN-γ ELISpot response [19]: 6 SFU; IFN-γ ELISpot response [20]: 49 SFU; Significant response as percentage of maximal peptide SFU (patient E, max peptide 224 SFU): ′′ (21-40% = ′′); IFN-γ ELISpot response [21]: 21 SFU; Significant response as percentage of maximal peptide SFU (patient F, max peptide 178 SFU): ′ (11-20% = ′); IFN-γ ELISpot response [22]: 13 SFU; Significant response as percentage of maximal peptide SFU (patient II, max peptide 15 SFU): + (>70% = +); Significant response as percentage of maximal peptide SFU (patient M, max peptide 48 SFU): ′′ (21-40% = ′′); IFN-γ ELISpot response [23]: 3 SFU; Significant response as percentage of maximal peptide SFU (patient five, max peptide 48 SFU): ′′ (21-40% = ′′); Significant response as percentage of maximal peptide SFU [14]: ′′′ (41-70% = ′′′); IFN-γ ELISpot response [24]: 7 SFU; Significant response as percentage of maximal peptide SFU [18]: ′ (11-20% = ′)
FPQPQQQFPQPQQ | 1 SFU | 5 SFU | 1 SFU |  |  |  | 4 SFU | 10 SFU | ′ (11-20% = ′) | 4 SFU |  | 2 SFU | 6 SFU | 1 SFU | 5 SFU |  | 2 SFU | 4 SFU | 1 SFU | 0 SFU | IFN-γ ELISpot response [19]: 2 SFU; IFN-γ ELISpot response [20]: 12 SFU; Significant response as percentage of maximal peptide SFU (patient E, max peptide 224 SFU): (6-10% = ^); IFN-γ ELISpot response [21]: 4 SFU; IFN-γ ELISpot response [22]: 6 SFU; Significant response as percentage of maximal peptide SFU (patient II, max peptide 15 SFU): + (>70% = +); IFN-γ ELISpot response [23]: 1 SFU; IFN-γ ELISpot response [24]: 5 SFU
